Columns and labels:
[1] = Chemical stability of derivatized Au13 cluster
[2] = Stability of photocrosslinked Au13 cluster to KCN (optical density at 346 and 420 nm); type: physicochemical; settings: 100 μl of cluster (1 μMolar) with 20 μl of 0.1M KCN
Method: Two nmol of the Au13 [P(PhCONH(CH2)3 NH2)3 ]10 cluster in 0.1M sodium citrate buffer, pH 5, was incubated with the crosslinking reagent, N-hydroxysuccinimidyl-4-azidosalicylic acid (NHS-ASA). A range of amounts was tried, from 1 to 100-fold molar excess over the number of amines in the cluster. Incubation was carried out in the dark for 30 min. The solution was exposed to UV light (Ultraviolet Products Inc., Lamp R-52) at 4 cm for 5 min. The product was purified on a 0.66×50 cm column of GH-25 (Amicon) using the buffer 0.36M triethylammonium bicarbonate/70% methanol in water. Alternately, these last two steps were reversed so that unreacted crosslinker was removed on the column before UV treatment.
The crosslinked cluster stability was quantitated by observing the decrease in optical density at 346 and 420 nm in a spectrophotometer at regular intervals after adding KCN or glutathione. One hundred μl of cluster (1 μMolar) was mixed with 20 μl of 0.1M KCN. […] Noncrosslinked cluster was completely destroyed after 2 min under these conditions.
A longer photocrosslinking reagent was also used, sulfosuccinimidyl 6-(4'-azido-2'-nitrophenylamino) hexanoate (sulfo-SANPAH). The procedure was identical to that described above. For 100-fold initial excess of crosslinker, the resulting cluster product was 100% stable to KCN indefinitely, whereas uncrosslinked cluster was completely destroyed in 2 min.

Au13 [P(PhCONH(CH2)3 NH2)3 ]10 [derivatized Au13 cluster]
stability upon addition of 1M KCN [1]: degraded | time to complete destruction in KCN [2]: 2 min

Reference: US5360895A, “Derivatized gold clusters and antibody-gold cluster conjugates” (priority 1992, dated 1994)
